Measurements reported in patent US20220251105A1, “METHODS OF TREATING A MK2-MEDIATED DISORDER” (Celgene CAR LLC, priority 2019, published 2022).
Like-named read-outs stand apart in the source and are kept apart here.

Key:
[1] = toxicokinetics, 28-day monkey study; format: in vivo, cynomolgus monkey; conditions: for AUC / Cmax: cynomolgus monkey, plasma, po; for dose proportionality of systemic exposure (AUCLST): monkeys
[2] = single intravenous dose pharmacokinetics in Sprague Dawley rats; format: in vivo; conditions: rat, plasma; for Vd: read-out: Vdss
Description: (§1) In vitro and in vivo studies were conducted to characterize the absorption, PK, distribution, and metabolism of Compound 1. […] Additionally, plasma samples from single dose PK studies in mice and monkeys were evaluated for circulating metabolites.

[3] = single oral dose pharmacokinetics in CD-1 mice; format: in vivo, mouse
Description: as §1

[4] = CD-1, plasma, mouse, female, single oral 15 mg/kg
[5] = CD-1, plasma, mouse, female, single oral 100 mg/kg
[6] = CD-1, plasma, mouse, male, single oral 15 mg/kg
[7] = CD-1, plasma, mouse, male, single oral 100 mg/kg

Compound CCOCc1cnc(Cl)nc1Oc1ccc2c(ccc3sc4c(c32)NC[C@@H](C)NC4=O)n1 [Compound 1] has an AUC ([1]; female, 15 mg/kg/day, monkey, Study Day 1, female, 15 mg/kg/day (so in the source), read-out: AUCLST) of 3090 ng·h/mL, a Cmax ([1]; female, 150 mg/kg/day, monkey, Study Day 1, female, 150 mg/kg/day) of 1390 ng/mL and an AUC ([1]; female, 150 mg/kg/day, monkey, Study Day 1, female, 150 mg/kg/day, read-out: AUCLST) of 6330 ng·h/mL. The AUC ([1]; female, 150 mg/kg/day, monkey, Study Day 21, female, 150 mg/kg/day, read-out: AUCLST) was 7840 ng·h/mL, the AUC ([1]; female, 375 mg/kg/day, monkey, Study Day 1, female, 375 mg/kg/day, read-out: AUCLST) was 16700 ng·h/mL and the AUC ([1]; female, 375 mg/kg/day, monkey, Study Day 21, female, 375 mg/kg/day, read-out: AUCLST) was 4220 ng·h/mL. The Cmax ([1]; female, cynomolgus, 15 mg/kg/day, monkey, Study Day 21, female, 15 mg/kg/day (so in the source)) was 818 ng/mL, the AUC ([1]; female, cynomolgus, 15 mg/kg/day, monkey, Study Day 21, female, 15 mg/kg/day (so in the source), read-out: AUCLST) was 2460 ng·h/mL and the Cmax ([1]; female, cynomolgus, 150 mg/kg/day, monkey, Study Day 21, female, 150 mg/kg/day) was 1620 ng/mL. For the same compound, the Cmax ([1]; male, 15 mg/kg/day, monkey, Study Day 1, male, 15 mg/kg/day (so in the source)) was 623 ng/mL, the AUC ([1]; male, 15 mg/kg/day, monkey, Study Day 1, male, 15 mg/kg/day (so in the source), read-out: AUCLST) was 1750 ng·h/mL and the Cmax ([1]; male, 15 mg/kg/day, monkey, Study Day 21, male, 15 mg/kg/day (so in the source)) was 465 ng/mL. For the same compound, the Cmax ([1]; male, 150 mg/kg/day, monkey, Study Day 1, male, 150 mg/kg/day) was 1240 ng/mL, the AUC ([1]; male, 150 mg/kg/day, monkey, Study Day 1, male, 150 mg/kg/day, read-out: AUCLST) was 5840 ng·h/mL and the Cmax ([1]; male, 150 mg/kg/day, monkey, Study Day 21, male, 150 mg/kg/day) was 674 ng/mL. The AUC ([1]; male, 375 mg/kg/day, male monkeys (375 mg/kg/day), steady-state, read-out: NOAEL with respect to AUCLST) was 8790 ng·h/mL, the AUC ([1]; male, 375 mg/kg/day, monkey, Study Day 1, male, 375 mg/kg/day, read-out: AUCLST) was 14100 ng·h/mL and the AUC ([1]; male, cynomolgus, 15 mg/kg/day, monkey, Study Day 21, male, 15 mg/kg/day (so in the source), read-out: AUCLST) was 1280 ng·h/mL. The AUC ([1]; male, cynomolgus, 150 mg/kg/day, monkey, Study Day 21, male, 150 mg/kg/day, read-out: AUCLST) was 3950 ng·h/mL, the AUC ([1]; male, cynomolgus, 375 mg/kg/day, monkey, Study Day 21, male, 375 mg/kg/day, read-out: AUCLST) was 8790 ng·h/mL and the “dose proportionality of systemic exposure (AUCLST)” value ([1]; Day 1, 50 to 375 mg/kg/day) was “approximately dose-proportional manner”. For the same compound, the “dose proportionality of systemic exposure (AUCLST)” value ([1]; Day 20, 50 to 375 mg/kg/day) was “less than dose-proportional manner”, the half-life ([2]; both sexes, iv, 5 mg/kg, rats, read-out: terminal half-life) was ≤ 60 min and the AUC ([2]; female, single IV 5 mg/kg) was 3950 ng·h/mL. For the same compound, the AUC(0-inf) ([2]; female, single IV 5 mg/kg) was 3960 ng·h/mL, the clearance ([2]; female, single IV 5 mg/kg) was 21.5 mL/min/kg and the Vd ([2]; female, single IV 5 mg/kg) was 0.561 L/kg. For the same compound, the half-life ([2]; female, single IV 5 mg/kg, read-out: t1/2,z (converted)) was 66 min, the AUC ([2]; male, single IV 5 mg/kg) was 2020 ng·h/mL and the AUC(0-inf) ([2]; male, single IV 5 mg/kg) was 2020 ng·h/mL. It also gave a clearance ([2]; male, single IV 5 mg/kg) of 42.2 mL/min/kg, a Vd ([2]; male, single IV 5 mg/kg) of 0.648 L/kg and a half-life ([2]; male, single IV 5 mg/kg, read-out: t1/2,z (converted)) of 13.8 min. For the same compound, the AUC [3, 4] was 5170 ng·h/mL, the AUC(0-inf) [3, 4] was 5250 ng·h/mL and the Cmax [3, 4] was 1980 ng/mL. It also gave a Tmax ([3]; CD-1, plasma, mouse, female, single oral 15 mg/kg, read-out: tmax) of 30 min, an AUC [3, 5] of 28200 ng·h/mL and an AUC(0-inf) [3, 5] of 28400 ng·h/mL. The Cmax [3, 5] was 8080 ng/mL, the Tmax ([3]; CD-1, plasma, mouse, female, single oral 100 mg/kg, read-out: tmax) was 15 min and the AUC [3, 6] was 2870 ng·h/mL. The AUC(0-inf) [3, 6] was 3040 ng·h/mL, the Cmax [3, 6] was 1270 ng/mL and the Tmax ([3]; CD-1, plasma, mouse, male, single oral 15 mg/kg, read-out: tmax) was 15 min. It also gave an AUC [3, 7] of 19200 ng·h/mL, an AUC(0-inf) [3, 7] of 19200 ng·h/mL and a Cmax [3, 7] of 6600 ng/mL. The Tmax ([3]; CD-1, plasma, mouse, male, single oral 100 mg/kg, read-out: tmax) was 30 min, the bioavailability ([3]; both sexes, CD-1, mouse, plasma, po, mice, doses in the range 15 to 375 mg/kg) was 22 to 51% and the Tmax ([3]; both sexes, CD-1, mouse, plasma, mice, oral dosing, read-out: time to maximum plasma concentration (tmax)) was 15 to 60 min. For the same compound, the F ([3]; mouse, female, single oral 15 mg/kg) was 51%, the F ([3]; mouse, female, single oral 100 mg/kg) was 41% and the F ([3]; mouse, male, single oral 15 mg/kg) was 23%. The F ([3]; mouse, male, single oral 100 mg/kg) was 22%.
